Laboratory results as given in US7094789B2, “5-substituted isoquinoline derivatives” (Asahi Kasei Pharma Corporation, priority 2002, dated 2006).
Structures can show the parent of a compound that is named as a salt.

Assays:
[1] = system: thoracic aorta constricted with phenylephrine; experiment: Vasoconstriction inhibitory action (Test Example 2); parameters: species or system Rats (Wistar); details: result in words; rat thoracic aorta, phenylephrine
From the text: Rats (Wistar, 11-week old) were bleeded to death and laparotomized to take out the thoracic aorta. That aorta was cut into a ring of a length of about 3 mm in a conventional manner (Asano, T., et al., J. Pharmacol. Exp. Ther., 241, pp. 1033–1040 (1987)) and hung in 10-ml organ bath filled with Krebs-Hensright nutrient solution bubbled with a mixed gas of 95% O2 and 5% CO2. One end of the blood vessel was connected to an isometric transducer (FD Pickup TB-912T, Nihon Kohden) and applied with 2.5 g of resting tension, and constriction and relaxation reactions of the aorta were recorded. The aorta was constricted with phenylephrine (1 μM, Sigma) and then added with a test compound (1 μM), and the vasoconstriction inhibitory action thereof was observed. The vasoconstriction inhibitory actions of the test compounds are shown in Table 6 mentioned below as the relaxation ratios, which are based on the vasoconstriction with phenylephrine immediately before the addition of the test compound taken as 100%.

[2] = system: intraocular pressure; experiment: Intraocular pressure reducing action (Test Example 4); assay type: in vivo, Japanese white rabbit; details: for intraocular pressure reducing activity: result in words, rabbit; for inhibition in vivo at 1 %, 50 µL: Oryctolagus cuniculus, topical, 1% aqueous solution, 50 μl dropped to the left eye, after 2 hours, read-out: Intraocular pressure reducing action (reduction ratio) (%)
Method: A Japanese white rabbit having a body weight of about 2 kg was placed in a positioner and naturalized for one week before the experiment. An ophthalmologic local anesthesant (Benoxil) was administered to the left eye, and then intraocular pressure was measured by using a tonometer (Classic 30, Solan). The initial value of the intraocular pressure was measured, then 50 μl of a test compound (1% aqueous solution) was dropped to the left eye, and after 2 hours, the intraocular pressure was measured. The intraocular pressure reducing action of the test compounds is shown in Table 7 mentioned below as ratios (%) of reduction of intraocular pressure based on the initial value of the intraocular pressure.

[3] = target: T1, myosin light chain phosphorylation enzyme (MLCK) (Gallus gallus, UniProt P11799); experiment: Action on myosin light chain phosphorylation enzyme (MLCK) activity; assay type: biochemical, chicken; details: for inhibition of MLCK: result in words; for IC50: MLCK from chicken gizzard smooth muscle, ELISA, 100 μM ATP, read-out: Myosin light chain phosphorylation enzyme inhibitory action IC50
T1 construct: purified from chicken gizzard smooth muscle by a conventional method; from tissue; host or cells: chicken gizzard smooth muscle
Method: A myosin light chain phosphorylation enzyme (MLCK) was purified from chicken gizzard smooth muscle by a conventional method (Yoshida, M., et al., J. Biochem., 99, 1027–1036 (1986)). The myosin regulatory light chain as a substrate was purified from the chicken gizzard smooth muscle by a conventional method (Grand, R. J., et al., Biochem. J., 211, 267–272 (1983)). The MLCK activity was measured by ELISA using pLC1 described in Test Example 1 (Sakurada, K., et al., J. Biochem., 115, 18–21 (1994)). The myosin regulatory light chain was diluted in phosphate-buffered saline (PBS, Sigma) to a concentration of 5.0 µg/ml, added to 96-well Immunoplate (Nunc) in a volume of 100 μl per well and left stand overnight at 4° C. Each well was washed with PBS, and 25 mM Tris/HCl buffer containing 100 μM ATP, 3 mM MgCl2, 1 mM CaCl2, 100 ng/ml of calmodulin (Sigma) and 100 ng/ml of MLCK (pH 7.4, Buffer A) was added to each well and incubated at 30° C. for 10 minutes. In a volume of 100 μl each of 20% aqueous phosphoric acid solution was added to each well to terminate the enzymatic reaction. Each well was washed with 25 mM Tris/HCl buffer (TTBS) containing 0.1% Tween 20, and then 100 μl each of pLC1 described in Test Example 1 was added to each well and incubated at room temperature for 90 minutes.
Each well was washed with TTBS, and then 100 μl of the HRP-labeled rabbit anti-mouse IgG antibodies (Bio-Rad) were added to each well and incubated at room temperature for 90 minutes. Each well was washed with TTBS, and then 25 mM citrate buffer (pH 5.0) containing orthophenylenediamine (Sigma) as a substrate of HRP and aqueous hydrogen peroxide (0.03%) was added in a volume of 100 μl per well and incubated at room temperature for 5 minutes. 50 μl of 4 N sulfuric acid was added to each well to terminate the reaction, and then absorbance was measured by using an immunoplate reader (Bio-Rad).

Row | inhibition of MLCK [3] | SMILES | vasoconstriction inhibitory action [1] | intraocular pressure reducing activity [2] | also measured
1 |  | Cl.N#Cc1cncc2cccc(O[C@H]3CC[C@H](N)CC3)c12 [Example 134, Trans-4-[(4-cyano-5-isoquinolyl)oxy]cyclohexylamine hydrochloride] | significant vasoconstriction inhibitory action | significant intraocular pressure reducing activity | 
2 |  | Cc1cncc2cccc(S(=O)(=O)N(CCCN)CCCc3ccccc3)c12.Cl [Example 5, N-[(4-Methyl-5-isoquinolyl)sulfonyl]-N-(3-phenylpropyl)-1,3-propylenediamine hydrochloride] | significant vasoconstriction inhibitory action |  | 
3 |  | CSc1cncc2cccc(NC3CCNCC3)c12.Cl [Example 105, 4-(4-Methylthio-5-isoquinolyl)aminopiperidine hydrochloride] | significant vasoconstriction inhibitory action |  | inhibition in vivo at 1 %, 50 µL [2]: 18.8%
4 |  | N[C@H]1CC[C@H](Nc2cccc3cnccc23)CC1 [Example 24, Trans-N-(5-isoquinolyl)-1,4-cyclohexanediamine hydrochloride] |  |  | inhibition in vivo at 1 %, 50 µL [2]: 35.7%
5 | did not inhibit MLCK | C=Cc1cncc2cccc(NC3CCNCC3)c12.Cl [Example 112, 4-(4-Vinyl-5-isoquinolyl)aminopiperidine hydrochloride] | significant vasoconstriction inhibitory action |  | inhibition in vivo at 1 %, 50 µL [2]: 25%
6 | did not inhibit MLCK | Cl.c1cc(OC2CCNCC2)c2ccncc2c1 [Example 27, 4-[(5-Isoquinolyl)oxy]piperidine hydrochloride] |  |  | inhibition in vivo at 1 %, 50 µL [2]: 12.5%
7 |  | Cl.Oc1nccc2c(NC3CCNCC3)cccc12 [Example 115, 4-(1-Hydroxy-5-isoquinolyl)aminopiperidine hydrochloride] |  | significant intraocular pressure reducing activity | 
8 | did not inhibit MLCK | Cl.Fc1cncc2cccc(NC3CCNCC3)c12 [Example 104, 4-(4-Fluoro-5-isoquinolyl)aminopiperidine hydrochloride] |  |  | inhibition in vivo at 1 %, 50 µL [2]: 18.8%
9 |  | C=Cc1cncc2cccc(O[C@H]3CC[C@H](N)CC3)c12.Cl [Example 136, Trans-4-[(4-vinyl-5-isoquinolyl)oxy]cyclohexylamine hydrochloride] | significant vasoconstriction inhibitory action | significant intraocular pressure reducing activity | 
10 |  | Cl.NC1CCC(Nc2cccc3cncc(Br)c23)CC1 (stereo not drawn) [Example 107, N-(4-Bromo-5-isoquinolyl)-1,4-cyclohexanediamine hydrochloride] |  | significant intraocular pressure reducing activity | 
11 | did not inhibit MLCK | COC(=O)c1ccc(CCCN(CCCN)S(=O)(=O)c2cccc3cnccc23)cc1.Cl [Example 130, N-[(5-Isoquinolyl)sulfonyl]-N-[3-(4-methoxycarbonyl)phenylpropyl]-1,3-propylenediamine hydrochloride] |  |  | 
12 |  | Cl.N[C@H]1CC[C@H](Oc2cccc3cnccc23)CC1 [Example 135, Trans-4-[(5-isoquinolyl)oxy]cyclohexylamine hydrochloride] |  | significant intraocular pressure reducing activity | 
13 |  | Cc1cncc2cccc(OC3CCNCC3)c12.Cl [Example 139, 4-[(4-Methyl-5-isoquinolyl)oxy]piperidine hydrochloride] | significant vasoconstriction inhibitory action | significant intraocular pressure reducing activity | 
14 |  | Cl.NCCCN(CCCc1ccccc1)S(=O)(=O)c1cccc2c(N)nccc12 [Example 8, N-[(1-Amino-5-isoquinolyl)sulfonyl]-N-(3-phenylpropyl)-1,3-propylenediamine hydrochloride] | significant vasoconstriction inhibitory action |  | IC50 [3]: > 50 µM
15 |  | Cl.NCCCN(CCS(=O)(=O)c1ccccc1)S(=O)(=O)c1cccc2c(O)nccc12 [Example 13, N-[(1-Hydroxy-5-isoquinolyl)sulfonyl]-N-[2-(phenylsulfonyl)ethyl]-1,3-propylenediamine hydrochloride] | significant vasoconstriction inhibitory action |  | 
16 | did not inhibit MLCK | Cc1cncc2cccc(N[C@H]3CC[C@@H](N)CC3)c12.Cl [Example 120, Cis-N-(4-methyl-5-isoquinolyl)-1,4-cyclohexanediamine hydrochloride] | significant vasoconstriction inhibitory action | significant intraocular pressure reducing activity | 
17 |  | NCCCOc1cccc2c(N)nccc12 [Example 10, 3-[(1-Amino-5-isoquinolyl)oxy]propylamine hydrochloride] |  |  | IC50 [3]: > 30 µM
18 |  | NCCCN(CCCc1ccccc1)S(=O)(=O)c1cccc2cnccc12 [Example 1, N-[(5-Isoquinolyl)sulfonyl]-N-(3-phenylpropyl)-1,3-propylenediamine hydrochloride] |  |  | IC50 [3]: > 50 µM
19 | did not inhibit MLCK | Cl.NCCCN(CCCc1cccc(C(=O)O)c1)S(=O)(=O)c1cccc2cnccc12 [Example 128, N-[(5-Isoquinolyl)sulfonyl]-N-[3-(3-carboxy)phenylpropyl]-1,3-propylenediamine hydrochloride] |  |  | 
20 | did not inhibit MLCK | Cl.Nc1nccc2c(O[C@H]3CC[C@@H](N)CC3)cccc12 [Example 141, Cis-4-[(1-amino-5-isoquinolyl)oxy]cyclohexylamine hydrochloride] |  |  | 
21 |  | CCc1cncc2cccc(NC3CCNCC3)c12.Cl [Example 113, 4-(4-Ethyl-5-isoquinolyl)aminopiperidine hydrochloride] | significant vasoconstriction inhibitory action | significant intraocular pressure reducing activity | 
22 |  | Cl.OCCCN1CCC(Nc2cccc3cnccc23)CC1 [Example 145, 1-(3-Hydroxypropyl)-4-(5-isoquinolyl)aminopiperidine hydrochloride] |  | significant intraocular pressure reducing activity | 
23 |  | NCCN(CCS(=O)(=O)c1ccccc1)S(=O)(=O)c1cccc2cnccc12 [Example 7, N-[(5-Isoquinolyl)sulfonyl]-N-[2-(phenylsulfonyl)ethyl]ethylenediamine hydrochloride] |  |  | inhibition in vivo at 1 %, 50 µL [2]: 30.1%; IC50 [3]: > 50 µM
